Source: paper PMC2584044, “Key biosynthetic gene subfamily recruited for pheromone production prior to the extensive radiation of Lepidoptera” (BMC Evolutionary Biology, 2008)

Target: T1, Lca-QPAQ (Lca-Z9-QPAQ) (Lampronia capitella, UniProt B6CBS2)
T1 construct: full-length ORF, 353 residues, YEpOLEX in S. cerevisiae ole1
T1 sequence (B6CBS2 1-352): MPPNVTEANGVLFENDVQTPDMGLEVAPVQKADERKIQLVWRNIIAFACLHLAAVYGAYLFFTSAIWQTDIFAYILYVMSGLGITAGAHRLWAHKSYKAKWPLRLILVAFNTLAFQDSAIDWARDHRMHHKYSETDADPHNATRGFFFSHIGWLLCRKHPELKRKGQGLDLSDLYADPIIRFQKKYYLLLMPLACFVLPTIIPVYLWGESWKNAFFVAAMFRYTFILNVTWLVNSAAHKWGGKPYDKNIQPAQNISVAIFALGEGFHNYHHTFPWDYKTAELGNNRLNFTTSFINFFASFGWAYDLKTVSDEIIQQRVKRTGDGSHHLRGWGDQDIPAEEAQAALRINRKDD
Experiment: product GC-MS with DMDS adducts, yeast ole1 complementation
Assay type: cell-based
Details: endogenous yeast acyl (as acyl-CoA); 30 °C; product (Z)-9-hexadecenoic acid

`CCCCCCCCCCCCCCCC(=O)O` [palmitic acid] was tested, and the “product GC-MS with DMDS adducts, yeast ole1 complementation” value was “Lca-QPAQ and Hass-KPSE are encoding Z9-desaturases displaying a substrate preference for palmitic acid”.
